In patent US11040976B2, “Substrate selective inhibitors of insulin-degrading enzyme (IDE) and uses thereof” (President and Fellows of Harvard College, priority 2015, dated 2021):
Structures can show the parent of a compound that is named as a salt. Where two headings read alike, the source gives them in different places.

Target: T1, recombinant human IDE42-1019 (Homo sapiens, UniProt P14735)
T1 construct: recombinant human IDE42-1019 (R&D Systems); purchased R&D Systems
T1 sequence (P14735 42-1019): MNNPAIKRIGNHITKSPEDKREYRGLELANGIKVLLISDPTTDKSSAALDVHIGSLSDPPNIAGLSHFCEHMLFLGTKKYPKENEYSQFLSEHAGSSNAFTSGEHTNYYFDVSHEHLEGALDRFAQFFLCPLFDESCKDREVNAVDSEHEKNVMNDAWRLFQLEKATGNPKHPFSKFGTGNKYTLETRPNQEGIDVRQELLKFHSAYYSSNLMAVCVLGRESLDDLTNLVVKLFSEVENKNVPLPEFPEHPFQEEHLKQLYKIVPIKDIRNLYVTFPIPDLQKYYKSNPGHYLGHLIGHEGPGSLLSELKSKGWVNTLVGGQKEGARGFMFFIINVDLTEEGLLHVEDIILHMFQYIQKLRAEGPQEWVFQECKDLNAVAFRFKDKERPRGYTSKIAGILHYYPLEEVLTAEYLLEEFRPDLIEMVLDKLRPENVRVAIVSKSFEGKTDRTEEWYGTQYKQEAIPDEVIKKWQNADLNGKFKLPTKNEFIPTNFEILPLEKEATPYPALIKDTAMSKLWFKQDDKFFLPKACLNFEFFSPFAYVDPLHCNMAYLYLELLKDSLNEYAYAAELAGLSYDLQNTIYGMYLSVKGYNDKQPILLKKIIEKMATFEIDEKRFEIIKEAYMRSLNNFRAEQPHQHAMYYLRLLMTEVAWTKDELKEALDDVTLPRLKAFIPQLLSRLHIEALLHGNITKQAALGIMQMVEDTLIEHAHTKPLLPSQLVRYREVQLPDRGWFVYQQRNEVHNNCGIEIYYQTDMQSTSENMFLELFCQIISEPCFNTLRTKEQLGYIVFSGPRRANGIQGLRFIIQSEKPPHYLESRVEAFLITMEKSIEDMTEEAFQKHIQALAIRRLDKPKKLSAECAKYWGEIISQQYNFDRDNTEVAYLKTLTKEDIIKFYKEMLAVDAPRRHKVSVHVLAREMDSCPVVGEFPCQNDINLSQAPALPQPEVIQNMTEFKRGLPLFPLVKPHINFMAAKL
Assay: Protease assay with fluorogenic peptide substrate Mca-[…](Dnp)-OH
Format: biochemical
Settings: for Emax: plateau at high inhibitor concentration, read-out: Imax (%) Proteolysis (inhibition maximum)
Experimental: The proteases IDE42-1019, recombinant human IDE42-1019 (R&D Systems), neprilysin (R&D), and angiotensin-converting enzyme (R&D) were assayed using the fluorophore/quencher-tagged peptide substrate Mca-[…](Dnp)-OH (SEQ ID NO: 24) (R&D) according to the manufacturer's instructions and using the recommended buffers (fluorophore Mca=(7-methoxycourmarin-4-yl)acetyl and quencher Dnp=2,4-dinitrophenyl). For IDE the recommended buffer is 50 mM Tris pH 7.5, 1 M NaCl. The enzyme mixtures (48 μL) were transferred to a 96-well plate and combined with 2 μL of inhibitor in DMSO solutions, in 3-fold dilution series. The mixtures were allowed to equilibrate for 10 minutes and the enzymatic reaction was started by addition of substrate peptide in assay buffer (50 μL), mixed, and monitored on a fluorescence plate reader (excitation at 320 nm, emission at 405 nm). Similarly, thimet oligopeptidase (R&D) and neurolysin (R&D) were assayed using substrate Mca-PLGPK(Dnp)-OH (SEQ ID NO: 25) (R&D) according to the manufacturer's instructions and using the recommended buffers. Matrix metalloproteinase-1 (R&D) was activated and assayed according to the manufacturer's instructions with substrate Mca-KPLGL-Dpa-AR-NH2 (SEQ ID NO: 20) (R&D) (quencher DPA=N-3-(2,4,dinitrophenyl)-L-2,3-diaminopropionyl). All assay data points were obtained in duplicate.

[1] = fluorogenic peptide Mca-RPPGFSAFK(Dnp)-OH
[2] = fluorogenic peptide Mca-RPPGFSAFK(Dnp)-OH, apparent IC50 for compounds with submaximal inhibition, read-out: IC50 (μM) Proteolysis

Row | Compound | Emax [1] [%] | IC50 [2] [µM] | IC50 (fluorogenic peptide, FIG. 12, read-out: IC50 for proteolysis) [µM]
1 | Cc1cccc(-c2ccc(C3CCN(C(=O)c4ccc5occc5c4)CC3)cc2)c1C [A26] | – | 6 | –
2 | Cc1cccc(-c2ccc([C@H]3C4CN(S(=O)(=O)c5cn(C)nc5C(F)(F)F)C/C=C\CN4[C@@H]3CO)cc2)c1C (stereo partly shown) [JP-S20] | – | 0.03 | –
3 | COc1cccc(-c2ccc([C@@H]3[C@@H](CO)N4CCCCN(CC5CCOCC5)C[C@@H]34)cc2)c1 [compound 644] | – | > 100 | –
4 | Cc1cccc(-c2ccc([C@@H]3[C@@H](CN(C)C)N4CCCCN(S(=O)(=O)c5ccccc5C(F)(F)F)C[C@@H]34)cc2)c1C [JP-17-DMA] | – | 0.1 | –
5 | Cc1ccccc1S(=O)(=O)N1CCCCN2[C@H](CO)[C@@H](c3ccc(-c4cccc(F)c4)cc3)[C@@H]2C1 [B10] | 65 | – | –
6 | COc1cc(N)ccc1S(=O)(=O)N1CCCCN2[C@H](CO)[C@@H](c3ccc(-c4cccc(C)c4C)cc3)[C@@H]2C1 [JP-S5] | – | 0.5 | –
7 | Cc1cccc(-c2ccc(C3CCN(S(=O)(=O)c4ccc5c(ccn5C)c4)CC3)cc2)c1C [A14] | – | 10 | –
8 | COC[C@@H]1[C@@H](c2ccc(-c3cccc(C)c3C)cc2)[C@@H]2CN(S(=O)(=O)c3ccc[n+](C)c3C)CCCCN12 [JP-S21-diMe] | – | > 0.2 | –
9 | Cc1cccc(-c2ccc([C@@H]3[C@@H](CF)N4CCCCN(S(=O)(=O)c5ccccc5C(F)(F)F)C[C@@H]34)cc2)c1C [JP-18 TFA salt] | – | 0.01 | –
10 | Cc1cccc(-c2ccc(C3CCN(S(=O)(=O)c4ccc5[nH]c(=O)[nH]c5c4)CC3)cc2)c1C [A15] | – | 4 | –
11 | Cc1cccc(-c2ccc(C3CCN(S(=O)(=O)c4cccc(C(=O)N(C)C)c4)CC3)cc2)c1C [A06] | – | 1 | –
12 | Cc1cccc(-c2ccc(C3CCN(Cc4ccc(F)c5ccccc45)CC3)cc2)c1C [A35] | – | 12 | –
13 | Cc1cccc(-c2ccc(C3CCN(S(=O)(=O)c4ccc5c(c4)OCO5)CC3)cc2)c1C [A02] | – | 12 | –
14 | Cc1cccc(-c2ccc(C3CCN(S(=O)(=O)c4cc(C(F)(F)F)cc(C(F)(F)F)c4)CC3)cc2)c1C [A18] | – | 12 | –
15 | Cc1cc(C)cc(-c2ccc([C@@H]3[C@@H](CO)N4CCCCN(S(=O)(=O)c5ccccc5C)C[C@@H]34)cc2)c1 [B9] | 72 | – | –
16 | Cc1ccccc1S(=O)(=O)N1CCCCN2[C@H](CO)[C@@H](c3ccc(-c4ccccc4)cc3)[C@@H]2C1 [B6] | 65 | 1 | –
17 | O=C(c1ccncc1)N1CC2NC(C1)C2c1ccc(/C=C/c2ccccc2)cc1 (stereo not shown) [C10] | 100 | 10 | –
18 | Cc1ccccc1S(=O)(=O)N1CCCCN2[C@H](CO)[C@@H](c3ccc(-c4cccc(C)c4C)cc3)[C@@H]2C1 [B8] | – | – | 0.002
19 | Cc1cccc(-c2ccc([C@@H]3[C@@H](CO)N4CCCCN(S(=O)(=O)c5nccn5C)C[C@@H]34)cc2)c1C [JP-S23] | – | 0.0006 | –
20 | Cc1cccc(-c2ccc([C@H]3C4CN(S(=O)(=O)c5cnc6n5CCCCC6)C/C=C\CN4[C@@H]3CO)cc2)c1C (stereo partly shown) [JP-S17] | – | 0.09 | –
21 | COC(=O)c1ccc(S(=O)(=O)N2CCCCN3C(C2)[C@H](c2ccc(-c4cccc(C)c4C)cc2)[C@H]3CO)n1C (stereo partly shown) [JP-S27] | – | > 5 | –
22 | Cc1cccc(-c2ccc(C3CCN(S(=O)(=O)c4cccc5c(N(C)C)cccc45)CC3)cc2)c1C [A11] | – | 10 | –
23 | Cc1ccccc1-c1ccc([C@@H]2[C@H](CO)N3CCCCN(C(=O)Cc4ccccn4)C[C@@H]23)cc1 [compound 469] | 80 | – | –
24 | Cc1cccc(-c2ccc([C@H]3[C@H](CO)N4C(=O)CN(C(=O)NC5CCCCC5)C[C@@H]34)cc2)c1 [compound 130] | 60 | > 5 | –
25 | COc1ccc(C(=O)N2CCC(c3ccc(-c4cccc(C)c4C)cc3)CC2)c(OC)c1 [A21] | – | 1 | –
26 | Cc1cccc(-c2ccc(C3CCN(S(=O)(=O)c4cccnc4)CC3)cc2)c1C [A16] | – | 12 | –
27 | Cc1cccc(-c2ccc(C3CCN(S(=O)(=O)CCc4ccncc4)CC3)cc2)c1C [A17] | – | 5 | –

The next lines start with the values.

Row | Emax [1] [%] | IC50 [2] [µM] | IC50 (fluorogenic peptide, FIG. 12, read-out: IC50 for proteolysis) [µM] | Compound
28 | 65 | – | – | Cc1ccc(C)c(-c2ccc([C@H]3C4CN(S(=O)(=O)c5ccccc5C)CCCCN4[C@@H]3CO)cc2)c1 (stereo partly shown) [K13]
29 | – | 0.008 | – | O=S(=O)(c1ccccc1C(F)(F)F)N1C/C=C\CN2C(C1)[C@H](c1ccc(-c3cccc(Cl)c3Cl)cc1)[C@H]2CO (stereo partly shown) [K21]
30 | 70 | 5 | – | COc1ccccc1-c1ccc([C@@H]2[C@@H](C#N)N(C(=O)CN(C)C)[C@H]2CO)cc1 [D6]
31 | – | 0.1 | – | Cc1ccccc1S(=O)(=O)N1CCCCN2[C@H](CO)[C@@H](c3ccc(-c4cccc(F)c4C)cc3)[C@@H]2C1 [K20]
32 | 65 | – | – | COc1cccc(-c2ccc([C@H]3C4CN(S(=O)(=O)c5ccccc5C)CCCCN4[C@@H]3CO)cc2)c1 (stereo partly shown) [K3]
33 | – | 0.1 | – | Cc1c(-c2ccc([C@@H]3[C@@H](CO)N4CCCCN(S(=O)(=O)c5ccccc5C(F)(F)F)C[C@@H]34)cc2)cccc1C(F)(F)F [K19]
34 | 60 | 7.5 | – | COc1ccccc1-c1ccc([C@H]2[C@@H](CO)N[C@@H]2CNC(=O)C2CCCC2)cc1 [D5]
35 | – | 2.5 | – | Cc1cccc(-c2ccc(N3CCN(C(=O)C4CCCCC4)CC3)cc2)c1C [J9]
36 | – | 0.002 | – | Cc1ccccc1S(=O)(=O)N1CCCCN2[C@H](CO)[C@@H](c3ccc(-c4cccc(C)c4C)cc3)[C@@H]2C1 [K9]
37 | – | 3 | – | Cc1cc(O)ccc1-c1ccc([C@@H]2[C@@H](CO)N3CCCCN(S(=O)(=O)c4ccccc4C)C[C@@H]23)cc1 [JP-31]
38 | 65 | – | – | Cc1ccccc1S(=O)(=O)N1CCCCN2C(C1)[C@H](c1ccc(-c3ccccc3)cc1)[C@H]2CO (stereo partly shown) [K7]
39 | – | 0.06 | – | Cc1c(Cl)cccc1-c1ccc([C@H]2C3CN(S(=O)(=O)c4ccccc4C(F)(F)F)C/C=C\CN3[C@@H]2CF)cc1 (stereo partly shown) [JP-38]
40 | – | 0.03 | – | Cc1c(F)ccc(-c2ccc([C@@H]3[C@@H](CO)N4CCCCN(S(=O)(=O)c5ccccc5C(F)(F)F)C[C@@H]34)cc2)c1C [JP-41]
41 | – | 0.9 | – | COc1ccc(-c2ccc([C@@H]3[C@@H](CO)N4CCCCN(S(=O)(=O)c5ccccc5C)C[C@@H]34)cc2)c(C)c1 [K17]
42 | 72 | – | – | Cc1ccc(-c2ccc([C@H]3C4CN(S(=O)(=O)c5ccccc5C)CCCCN4[C@@H]3CO)cc2)cc1C (stereo partly shown) [K4]
43 | 100 | – | – | Cc1ccccc1S(=O)(=O)N1CCCCN2C(C1)[C@H](c1ccc(-c3cnc(F)c(C)c3)cc1)[C@H]2CO (stereo partly shown) [K26]
44 | – | 0.25 | – | Cc1cccc(-c2ccc([C@H]3C4CN(S(=O)(=O)c5ccccc5C)CCCCN4[C@@H]3CN)cc2)c1 (stereo partly shown) [K29]
45 | – | > 20 | – | CCC(=O)N1[C@H](CO)[C@H](c2ccc(-c3ccccc3OC)cc2)[C@H]1CNC(C)=O [D4]
46 | – | 2.5 | – | Cc1ccccc1S(=O)(=O)N1CCCCN2[C@H](CO)[C@@H](c3ccc(-c4ccc5c(c4)OCO5)cc3)[C@@H]2C1 [K5]
47 | – | 0.01 | – | Cc1c(Cl)cccc1-c1ccc([C@H]2C3CN(S(=O)(=O)c4ccccc4C(F)(F)F)C/C=C\CN3[C@@H]2CO)cc1 (stereo partly shown) [K22]
48 | 65 | – | – | Cc1ccccc1S(=O)(=O)N1CCCCN2C(C1)[C@H](c1ccc(-c3cccc(F)c3)cc1)[C@H]2CO (stereo partly shown) [K11]
49 | 65 | 0.3 | – | COc1ccccc1-c1ccc([C@H]2C3CN(S(=O)(=O)c4ccccc4C)CCCCN3[C@@H]2CO)cc1 (stereo partly shown) [K14]
50 | 65 | – | – | Cc1ccccc1-c1ccc([C@H]2C3CN(S(=O)(=O)c4ccccc4C)CCCCN3[C@@H]2CO)cc1 (stereo partly shown) [K12]
51 | – | 2.5 | – | Cc1cccc(-c2ccc(N3CCN(C(=O)CC4CCCCC4)CC3)cc2)c1C [J16]
52 | – | 0.1 | – | Cc1cc(C)cc(-c2ccc([C@@H]3[C@@H](CO)N4CCCCN(S(=O)(=O)c5ccccc5C)C[C@@H]34)cc2)c1 [K10]
